Measured values: publication PMC8293625, “HLA class-I-peptide stability mediates CD8^+ T cell immunodominance hierarchies and facilitates HLA-associated immune control of HIV” (Cell Reports, 2021)

Tests used:
[1] = target: Soluble HLA-A*0301 monomer (heavy chain and β2-microglobulin); assay: differential scanning fluorimetry (thermal denaturation)
[2] = target: HLA-A*0301 on TAP-deficient mono-allelic 721.221 cells (human | human (endogenous in 721.221)); assay: flow cytometry on cells
HLA-B*5701 [3] = target: T1, HLA-B*5701 (Homo sapiens, UniProt P01889, D201E/D98Y/E176V/E187L/E204Q/E69M/E70A/G107R/I90N/K202T/L105A/L119I/N104I/N87E/Q89R/Q94S/R106L/R155S/R180L/R86G/S101N/S121V/S35A/S48A/T118I/V36M/Y140S/Y91M); assay: Cell-based HLA class I-peptide concentration-based stability assay (TAP-deficient mono-allelic 721.221 cells); conditions: section B*57, TAP-deficient mono-allelic 721.221 cells, relative anti-HLA MFI
Procedure: (§5) Controls without peptide, but the corresponding concentration of DMSO, were performed in parallel.

[4] = tested on: HLA class-I alleles A*0101, A*0201, A*0301, A*2402, B*0702, B*0801, B*1402, B*1501, B*2705, B*3501, B*3901, B*4001, B*4402, B*5201, B*5701, B*5801, B*8101 …; type: cell-based, human; conditions: section B*58, TAP-deficient mono-allelic 721.221 cells, relative anti-HLA MFI
HLA-B*5701 [5] = target: T1, HLA-B*5701; assay: Thermal denaturation (differential scanning fluorimetry) of soluble HLA class I-peptide monomers; type: binding; conditions: DSF, 2 μM pMHC, SYPRO orange; representative, performed twice as technical triplicates (Fig S4B)
Procedure: (§1) To confirm these observations and further validate the cell-based stability assay, we used an orthogonal approach to evaluate the relationship between HLA class-I-peptide stability and ID by assessing thermal denaturation of soluble HLA class-I-peptide complexes ([Hellman et al., 2016]). In this assay, soluble HLA class-I monomers with bound peptide are incubated in the presence of an environmentally sensitive fluorescent molecule whose fluorescence is enhanced when bound to exposed hydrophobic surfaces during protein unfolding. As a result, the thermal stability (Tm, defined as the temperature at which 50% of the protein is unfolded) of an HLA class-I-peptide complex can be determined by fluorometric measurements during incremental temperature increases, which serve as a proxy for the stabilizing capacity of a bound epitope ([Hellman et al., 2016]).
(§2) This relative difference in Tm between ID and SubD epitopes was also observed for HLA-A^∗02 and HLA-B^∗57 (Figure S4) and collectively was statistically significant (Figure 3C).
(§3) Expression, refold and purification of the soluble constructs of the pMHCs were performed as previously described ([Pierce et al., 2014]). Briefly, the HLA-A^∗02, HLA-A^∗03 and HLA-B^∗57 heavy chains, and β2-microglobulin were expressed in Escherichia coli and purified as inclusion bodies (IBs). The IBs were solubilized in 8M Urea. Target peptides were provided by the MGH Peptide Core. […]
(§4) Differential scanning fluorimetry was performed using a Bio-RAD CFX96 real time PCR system as previously described. Briefly, the excitation and emission wavelengths were set to 587 and 607 nm respectively, and the fluorescence intensity was measured after every 1°C rise in temperature starting from 20°C and going up to 95°C. […] Apparent Tm values were calculated by identifying the point at which the melting transition was 50% complete.

HLA-A*0301 [6] = target: T2, HLA-A*0301 (Homo sapiens, UniProt P04439); assay: Cell-based HLA class I-peptide concentration-based stability assay (TAP-deficient mono-allelic 721.221 cells)
Procedure: as §5

HLA-A*0301 [7] = target: T2, HLA-A*0301; assay: Thermal denaturation (differential scanning fluorimetry) of soluble HLA class I-peptide monomers; type: binding; conditions: DSF, 2 μM pMHC, 10mM HEPES pH 7.4, 150 mM NaCl, SYPRO orange, 20–95°C in 1°C steps; representative (Fig 3B)
Procedure: as §1, §2, §3, §4

## HIV A*03-restricted RK9 epitope ([…], Gag p17 20-28) (peptide)
[1]
  Tm of the HLA-peptide complex: 53 °C
[2]
  percent stable HLA-peptide complexes on the surface after 4 h at 37°C with BFA: 40%

## HTQGYFPDW [HW9]
HLA-B*5701 [3]; peptide 10 uM
  Relative HLA MFI (10 uM): 0.3192
HLA-B*5701 [3]; peptide 100 uM
  Relative HLA MFI (100 uM): 0.6623
[4]; peptide 10 uM
  Relative HLA MFI (10 uM): 0.6285
[4]; peptide 100 uM
  Relative HLA MFI (100 uM): 1
HLA-B*5701 [5]
  thermal stability (Tm) of HLA-B*5701-peptide complex: 57 °C

## RLAFHHVAR [RR9]
HLA-A*0301 [6]; HLA A*03 mono-allelic TAP-deficient 721.221 cells, peptide 10 uM, relative anti-HLA MFI
  Relative HLA MFI (10 uM): 0.003513
HLA-A*0301 [6]; HLA A*03 mono-allelic TAP-deficient 721.221 cells, peptide 100 uM, relative anti-HLA MFI
  Relative HLA MFI (100 uM): 0.03204
HLA-A*0301 [6]; HLA-A*0301 + sgRNA TAP cells (Fig 3A), peptide concentration not given
  anti-HLA MFI (HLA-A*0301 surface stabilization): 123
HLA-A*0301 [7]
  thermal stability (Tm) of HLA-A*0301-peptide complex: 44 °C
